According to US6500858B2, “Taxoid anti-tumor agents and pharmaceutical compositions thereof” (The Research Foundation of the state University of New York, priority 1994, dated 2002):
“And” between values parts separate entries of the source, which are not always exact repeats. Identical values can stand only once. Like-named read-outs stand apart in the source and are kept apart here.

Experiments:
[1] = test system: LCC6-WT: human breast carcinoma; assay: cytotoxicity assay of second generation taxoids; format: cell-based; conditions: 72 h drug exposure; read-out: LCC6-WT IC50
Experimental: A cytotoxicity assay of these new second generation taxoids was performed on human breast cancer cell lines, LCC6-WT and LCC-MDR, and selected taxoids were also assayed for their potency against MCF7 and MCF7-R (Skehan, P., et al., J. Nat. Cancer Inst. 1990, 82, 1107-1112).

[2] = test system: docetaxel-resistant melanoma, B16/TXT; assay: intravenous administration to B16/TXT melanoma-bearing mice; format: in vivo, B6D2F1 female mice; conditions: days 3, 5, 7
Experimental: (§1) The efficacy of the test compounds on solid tumors in vivo was determined experimentally according to the following general experimental protocol:
(§2) The mice subjected to the experiment were subcutaneously grafted bilaterally with 30 to 60 mg of a tumor fragment on day zero. Mice bearing tumors were mixed before being subjected to the various treatments and controls. In the case of treatment of advanced tumors, tumors were allowed to develop to the desired size, and mice having insufficiently developed tumors were eliminated. The selected mice were distributed at random to undergo the treatments and controls. Mice not bearing tumors may also be subjected to the same treatments as the tumor-bearing mice in order to be able to dissociate the toxic effect from the specific effect on the tumor. Chemotherapy generally began from 3 to 22 days after grafting, depending on the type of tumor, and the mice were observed every day. The different mice groups were weighed 3 or 4 times a week until the maximum weight loss was attained (nadir), and the groups were then weighed at least once a week until the end of the trial.
(§3) The tumors were measured 2 or 3 times a week until the tumor reached approximately 2 grams, or until the animal died, if this occurred before the tumor reached 2 grams. The mice were autopsied when sacrificed.
(§4) The antitumor activity was determined in accordance with different parameters recorded such as dose (mg/kg), mode of administration, time of administration, cytotoxicity, toxicity and log10 cell kill.
SB-T-1213, SB-T-121303, SB-T-121304 and SB-T-1250 were evaluated in B6D2F1 female mice bearing the docetaxel-resistant melanoma, B16/TXT. The general experimental protocol was as described above. The compounds evaluated were administered intravenously on an intermittent schedule on days 3, 5, and 7 post tumor implantation.

B16 melanoma = assay: intravenous administration to mice bearing B16 melanoma; format: in vivo, B6D2F1 female mice; parameters: key to Responses (activity rating): A = active; HA = highly active
Experimental: as §1, §2, §3, §4
SB-T-1213, SB-T-121303, SB-T-121304 and SB-T-1250 were evaluated in B6D2F1 female mice bearing B16 melanoma. The general experimental protocol was as described above. The compounds evaluated were administered intravenously (iv) on an intermittent schedule on days 3, 5, and 7 post tumor implantation. With the exception of SB-T-1250, solutions of the compounds for administration were prepared in 5% ethanol, 5% polysorbate 80, and 90% glucose 5% water.

MCF7 (mammary carcinoma) = assay: tumor cell growth inhibition (SRB, 72 h drug exposure); format: cell-based, human; conditions: read-out: MCF7 IC50
Experimental: (§5) Lower numbers indicate higher potency. […] The data represent the mean values of at least three separate experiments. Lower numbers indicate greater activity.
(§6) Assessment of cell growth inhibition was determined according to the methods of Skehan et al., J. Nat. Cancer Inst. […] Briefly, cells were plated between 400 and 1200 cells/well in 96 well plates and incubated at 37° C. for 15-18 h prior to drug addition to allow attachment of cells. […] After a 72 h incubation, […] of ice-cold 50% TCA was added to each well and incubated for 1 h at 4° C. Plates were then washed 5 times with tap water to remove TCA, low-molecular-weight metabolites and serum proteins. Sulforhodamine B (SRB) (0.4%, […]) was added to each well. Following a 5 min incubation at room temperature, plates were rinsed 5 times with 0.1% acetic acid and air dried. […] Optical density was measured at 570 nm.

[3] = test system: MCF7-R (mammary carcinoma cells 180-fold resistant to adriamycin); assay: as above; format: cell-based, human
Experimental: as §5, §6

Compound	IC50 [1]	IC50 (MCF7 (mammary carcinoma); Table 2)	IC50 ([3]; Table 2)	also measured
3′-Dephenyl-3′-(2-methylprop-1-enyl)-2-debenzoyl-2-(3-methoxybenzoyl)-10-cyclopropyldocetaxel [Taxoid 7m]	1 nM	–	–	–
CCC(=O)O[C@H]1C(=O)[C@@]2(C)[C@H]([C@H](OC(=O)c3cccc(OC)c3)[C@]3(O)C[C@H](OC(=O)[C@H](O)[C@H](C=C(C)C)NC(=O)OC(C)(C)C)C(C)=C1C3(C)C)[C@]1(OC(C)=O)CO[C@@H]1C[C@@H]2O [SB-T-121303]	–	–	–	T/C ([2]; 0.7 mg/kg/adm.): 94%; drug related deaths (DD) ([2]; 1.9 mg/kg/adm.): ⅕; drug related deaths (DD) ([2]; 3.2 mg/kg/adm.): 100%; highest nontoxic dose [2]: 1.2 mg/kg/adm.; Responses (activity rating) (B16 melanoma; 1.9 mg/kg/adm.): A; T/C (B16 melanoma; 1.9 mg/kg/adm., days 3, 5, 7): 12%; log10 cell kill (B16 melanoma; 1.9 mg/kg/adm., days 3, 5, 7): 1.7; % body weight loss at nadir (B16 melanoma; 1.9 mg/kg/adm., days 3, 5, 7, 1.9 mg/kg): 16.9% and 16.9 (13) %; drug related deaths (DD) (B16 melanoma; 3.2 mg/kg/adm., days 3, 5, 7): 100%; highest nontoxic dose (B16 melanoma; days 3, 5, 7): 1.9 mg/kg/adm.
CCC(=O)OC1C(=O)C2(C)C(O)CC3OCC3(OC(C)=O)C2C(OC(=O)c2cccc(F)c2)C2(O)CC(OC(=O)C(O)C(CC(C)C)NC(=O)OC(C)(C)C)C(C)=C1C2(C)C (stereo not drawn) [Taxoid 7a, 3′-Dephenyl-3′-(2-methylpropyl)-2-debenzoyl-2-(3-fluorobenzoyl)-10-propanoyldocetaxel]	0.4 nM	–	–	–
CCC(=O)OC1C(=O)C2(C)C(O)CC3OCC3(OC(C)=O)C2C(OC(=O)c2cccc(F)c2)C2(O)CC(OC(=O)C(O)C(C=C(C)C)NC(=O)OC(C)(C)C)C(C)=C1C2(C)C (stereo not drawn) [Taxoid 7b, 3′-Dephenyl-3′-(2-methylprop-1-enyl)-2-debenzoyl-2-(3-fluorobenzoyl)-10-propanoyldocetaxel]	0.5 nM	–	–	–
CCC(=O)OC1C(=O)C2(C)C(O)CC3OCC3(OC(C)=O)C2C(OC(=O)c2cccc(Cl)c2)C2(O)CC(OC(=O)C(O)C(C=C(C)C)NC(=O)OC(C)(C)C)C(C)=C1C2(C)C (stereo not drawn) [Taxoid 7d, 3′-Dephenyl-3′-(2-methylprop-1-enyl)-2-debenzoyl-2-(3-chlorobenzoyl)-10-propanoyldocetaxel]	0.8 nM	–	–	–
CCC(=O)OC1C(=O)C2(C)C(O)CC3OCC3(OC(C)=O)C2C(OC(=O)c2cccc(OC)c2)C2(O)CC(OC(=O)C(O)C(NC(=O)OC(C)(C)C)C(F)F)C(C)=C1C2(C)C (stereo not drawn) [Taxoid 7g, 3′-Dephenyl-3′-difluoromethyl-2-debenzoyl-2-(3-methoxybenzoyl)-10-propanoyldocetaxel]	1.5 nM	–	–	IC50 (MCF7 (mammary carcinoma); 72 h drug exposure, Table 3): 0.4 nM; IC50 ([3]; 72 h drug exposure, Table 3): 4.3 nM
C=CCCC(NC(=O)OC(C)(C)C)C(O)C(=O)OC1CC2(O)C(OC(=O)c3cccc(OC)c3)C3C4(OC(C)=O)COC4CC(O)C3(C)C(=O)C(OC(=O)CC)C(=C1C)C2(C)C (stereo not drawn) [Taxoid 7h, 3′-Dephenyl-3′-(3-butenyl)-2-debenzoyl-2-(3-methoxybenzoyl)-10-propanoyldocetaxel]	0.9 nM	–	–	IC50 (MCF7 (mammary carcinoma); 72 h drug exposure, Table 3): 2 nM; IC50 ([3]; 72 h drug exposure, Table 3): 7.7 nM
C=CCC(NC(=O)OC(C)(C)C)C(O)C(=O)OC1CC2(O)C(OC(=O)c3cccc(OC)c3)C3C4(OC(C)=O)COC4CC(O)C3(C)C(=O)C(OC(=O)CC)C(=C1C)C2(C)C (stereo not drawn) [Taxoid 7i, 3′-Dephenyl-3′-(2-propenyl)-2-debenzoyl-2-(3-methoxybenzoyl)-10-propanoyldocetaxel]	1.2 nM	–	–	IC50 (MCF7 (mammary carcinoma); 72 h drug exposure, Table 3): 0.8 nM; IC50 ([3]; 72 h drug exposure, Table 3): 8.7 nM
CCC(=O)OC1C(=O)C2(C)C(O)CC3OCC3(OC(C)=O)C2C(OC(=O)c2cccc(OC)c2)C2(O)CC(OC(=O)C(O)C(NC(=O)OC(C)(C)C)[C@H]3CC3(C)C)C(C)=C1C2(C)C (stereo partly drawn) [Taxoid 7j, 3′-Dephenyl-3′-[(S)-2,2-dimethylcyclopropyl]-2-debenzoyl-2-(3-methoxybenzoyl)-10-propanoyldocetaxel]	0.48 nM	–	–	IC50 (MCF7 (mammary carcinoma); 72 h drug exposure, Table 3): 0.6 nM; IC50 ([3]; 72 h drug exposure, Table 3): 1.5 nM
C/C=C/C(NC(=O)OC(C)(C)C)C(O)C(=O)OC1CC2(O)C(OC(=O)c3cccc(OC)c3)C3C4(OC(C)=O)COC4CC(O)C3(C)C(=O)C(OC(=O)CC)C(=C1C)C2(C)C (stereo not drawn) [Taxoid 7k, 3′-Dephenyl-3′-[(E)-prop-1-enyl]-2-debenzoyl-2-(3-methoxybenzoyl)-10-propanoyldocetaxel]	1.2 nM	–	–	–
C=Cc1cccc(C(=O)OC2C3C4(OC(C)=O)COC4CC(O)C3(C)C(=O)C(OC(=O)CC)C3=C(C)C(OC(=O)C(O)C(C=C(C)C)NC(=O)OC(C)(C)C)CC2(O)C3(C)C)c1 (stereo not drawn) [Taxoid 7p, 3′-Dephenyl-3′-(2-methylprop-1-enyl)-2-debenzoyl-2-(3-ethenylbenzoyl)-10-propanoyldocetaxel]	2.9 nM	–	–	–
CCC(=O)OC1C(=O)C2(C)C(O)CC3OCC3(OC(C)=O)C2C(OC(=O)c2ccccc2)C2(O)CC(OC(=O)C(O)C(CC(C)C)NC(=O)OC(C)(C)C)C(C)=C1C2(C)C (stereo not drawn) [Taxoid Ib′, 3′-dephenyl-3′-(2-methylpropyl)-10-propanoyldocetaxel]	–	0.35 nM	2.84 nM	–
CC(=O)OC12COC1CC(O)C1(C)C(=O)C(OC(=O)C3CC3)C3=C(C)C(OC(=O)C(O)C(C=C(C)C)NC(=O)OC(C)(C)C)CC(O)(C(OC(=O)c4ccccc4)C21)C3(C)C (stereo not drawn) [Taxoid Ic, 3′-Dephenyl-3′-(2-methyl-1-propenyl)-10-cyclopropanecarbonyldocetaxel]	–	0.2 nM	2.11 nM	times better activity than paclitaxel and docetaxel against drug-resistant human breast cells ([3]; MCF7-R): 142 times
CC(=O)OC12COC1CC(O)C1(C)C(=O)C(OC(=O)C3CC3)C3=C(C)C(OC(=O)C(O)C(CC(C)C)NC(=O)OC(C)(C)C)CC(O)(C(OC(=O)c4ccccc4)C21)C3(C)C (stereo not drawn) [Taxoid Ic′, 3′-Dephenyl-3′-(2-methylpropyl)-10-cyclopropanecarbonyldocetaxel]	–	0.51 nM	4.33 nM	–
CC=CC(=O)OC1C(=O)C2(C)C(O)CC3OCC3(OC(C)=O)C2C(OC(=O)c2ccccc2)C2(O)CC(OC(=O)C(O)C(C=C(C)C)NC(=O)OC(C)(C)C)C(C)=C1C2(C)C (stereo not drawn) [Taxoid Id, 3′-Dephenyl-3′-(2-methyl-1-propenyl)-10-crotonoyldocetaxel]	–	0.26 nM	3.35 nM	–
CC(=O)OC12COC1CC(O)C1(C)C(=O)C(OC(=O)N(C)C)C3=C(C)C(OC(=O)C(O)C(C=C(C)C)NC(=O)OC(C)(C)C)CC(O)(C(OC(=O)c4ccccc4)C21)C3(C)C (stereo not drawn) [Taxoid Ie, 3′-Dephenyl-3′-(2-methyl-1-propenyl)-O-N,N-dimethylcarbamoyldocetaxel]	–	0.13 nM	4.91 nM	–
CC(=O)OC12COC1CC(O)C1(C)C(=O)C(OC(=O)N(C)C)C3=C(C)C(OC(=O)C(O)C(CC(C)C)NC(=O)OC(C)(C)C)CC(O)(C(OC(=O)c4ccccc4)C21)C3(C)C (stereo not drawn) [Taxoid Ie′, 3′-Dephenyl-3′-(2-methylpropyl)-10-N,N-dimethylcarbamoyldocetaxel]	–	0.36 nM	5.8 nM	–
COC(=O)OC1C(=O)C2(C)C(O)CC3OCC3(OC(C)=O)C2C(OC(=O)c2ccccc2)C2(O)CC(OC(=O)C(O)C(C=C(C)C)NC(=O)OC(C)(C)C)C(C)=C1C2(C)C (stereo not drawn) [Taxoid If, 3′-Dephenyl-3′-(2-methyl-1-propenyl)-10-methoxycarbonyldocetaxel]	–	0.14 nM	5.25 nM	–
COC(=O)OC1C(=O)C2(C)C(O)CC3OCC3(OC(C)=O)C2C(OC(=O)c2ccccc2)C2(O)CC(OC(=O)C(O)C(CC(C)C)NC(=O)OC(C)(C)C)C(C)=C1C2(C)C (stereo not drawn) [Taxoid If′, 3′-Dephenyl-3′-(2-methylpropyl)-10-methoxycarbonyldocetaxel]	–	0.48 nM	6.35 nM	–
